PMC11650361 (Archiv Der Pharmazie, 2024)
Like-named read-outs stand apart in the source and are kept apart here.

Experiments:
[1] = ABTS radical cation scavenging activity assay; conditions: for IC50: concentration reducing ABTS radical by 50%, 1 h; for ABTS^•+‐scavenging activity, TEAC: relative to Trolox, 1 h incubation, n.a. = inactive
Procedure: Data are given for 1 h of incubation of compounds with ABTS^•+. The AOA of the compounds was evaluated as Trolox equivalent antioxidant capacity (TEAC values) as the ratio of the slopes of the concentration–response curves, test compound/Trolox. All tests were performed at least in triplicate in three independent experiments. The IC50 values for the test compounds were also determined.

β‐amyloid (1–42) (Aβ42) = β‐amyloid (1–42) (Aβ42) (Homo sapiens, UniProt P05067); assay: Inhibition of Aβ42 self-aggregation (thioflavin T fluorescence); format: biochemical; conditions: Aβ42 50 µM, compound 100 µM; read-out: Inhibition of Aβ42 self‐aggregation, %
Procedure: Inhibition of Aβ42 self‐aggregation by test compounds was studied using the ThT fluorescence method^[ [67], [68] ^] with minor modifications as described in detail in Makhaeva et al.^[ [16] ^] Lyophilized hexamfluoroisopropanol‐pretreated Aβ42 (GenicBio Limited, 1 mg) was dissolved in DMSO to obtain a stable 500 μM solution. […] Myricetin and propidium iodide in the same concentration were used as references. […] Each assay was run in triplicate.
^c The inhibitory effect of the test compounds toward Aβ42 self-aggregation was determined using the thioflavin T (ThT) fluorescence method ^[5-7] with minor modifications as described in detail in ^[8]. Lyophilized HFIP-pretreated Aβ42 from BACHEM (Bubendorf, Switzerland) was used. […] Myricetin and propidium iodide were used as reference compounds (positive controls). Analyses were performed with a FLUOStar Optima microplate reader (LabTech, Ortenberg, Germany). The inhibition (%) of Aβ42 self-aggregation by the test compounds was calculated by the following equation: […]
where IFi and IFo are the fluorescence intensities obtained for Aβ42 in the presence and in the absence of inhibitor, respectively, after subtracting the fluorescence of respective blanks.

[2] = system: HEK293T (human embryonic kidney) cells; assay: Cytotoxicity, MTT assay, HEK293T; format: cell-based; conditions: HEK-293T, 24 h
[3] = system: HepG2 cells (human hepatocellular carcinoma); assay: Cytotoxicity, MTT assay, HepG2; format: cell-based
porcine liver CES [4] = assay: In vitro CES inhibition (4-NPA substrate); format: biochemical; conditions: for CES inhibition, %: % inhibition at 20 μM, n.a. = not active
Procedure: The esterase profile of the synthesized conjugates was determined. This included an assessment of their inhibition of cholinergic targets AChE and BChE along with a structurally related enzyme CES (EC 3.1.1.1), which hydrolyzes numerous ester‐containing drugs and is considered as an off‐target for anti‐AD agents.^[ [9], [40] ^] Human erythrocyte AChE, equine serum BChE, and porcine liver CES were used.^[ [40], [41], [42] ^]
Initially, we used a single concentration of 20 µM for all compounds.
^a All experiments were carried out in accordance with the standard protocols approved by IPAС RAS. Human erythrocyte AChE, equine serum BChE were purchased from Milamed (Perm, Russia). Porcine liver CES, substrates, and reference compounds were from Sigma-Aldrich (St. Louis, MO, USA). The activity of enzymes was measured spectrophotometrically, as described in detail in ^[1] using ATCh iodide, BTCh iodide, and 4-NPA as substrates for AChE, BChE, and CES, respectively. Experimental conditions: K,Na-phosphate buffer (100 mM), 25 °С, pH 7.5 for AChE and BChE and pH 8.0 for CES assay. Measurements were carried out on a FLUOStar Optima microplate reader (BMG Labtech, Ortenberg, Germany). Test compounds were dissolved in DMSO; final concentration of solvent in the incubation mixture was 2% (v/v).

equine serum BChE = molecular target: T1, equine serum BChE (Equus caballus, UniProt P81908); assay: biochemical
T1 construct: purchased Sigma-Aldrich; Milamed, Perm, Russia (supplement); host or cells: horse serum

human erythrocyte AChE = molecular target: T2, human erythrocyte AChE (Homo sapiens, UniProt P22303); assay: biochemical; format: biochemical; conditions: for IC50: human erythrocyte AChE, mean ± SEM, n = 3
T2 construct: purchased Sigma-Aldrich; Milamed, Perm, Russia (supplement); host or cells: human erythrocytes

[5] = system: SH‐SY5Y (human neuroblastoma) cells; assay: Cytotoxicity, MTT assay, SH-SY5Y; format: cell-based; conditions: 24 h
[6] = molecular target: T3, PAS of Electrophorus electricus AChE (EeAChE) (Electrophorus electricus, UniProt O42275); format: binding; conditions: 20 µM compound concentration
T3 construct: purchased Sigma-Aldrich type VI-S; host or cells: electric eel tissue
Procedure: The ability of the test compounds to competitively displace propidium was evaluated by the fluorescence method,^[ [65] ^] as described in detail in Makhaeva et al.^[ [66] ^] […] After 15 min of incubation of the test compounds at a concentration of 20 μM with a 7 μM solution of EeAChE in 1 mM Tris‐HCl buffer, pH 8.0, 25°C, propidium iodide (final concentration 8 μM) was added. Then, the solutions were incubated for 15 min and the fluorescence spectrum was recorded (530 nm (excitation) and 600 nm (emission)). […] Measurements were performed in triplicate on a FLUOStar Optima microplate reader (BMG LabTech).
The 7 μM EeAChE was incubated with the test compound at a concentration of 20 μM in 1 mM Tris-HCl buffer pH 8.0, 25 °C, for 15 min. After that, propidium iodide was added at final concentration of 8 μM. The samples were incubated for 15 min and the fluorescence spectrum (530 nm (excitation) and 600 nm (emission)) was taken. […] The measurements were carried out in triplicate on a FLUOStar Optima microplate reader. The degree of propidium displacement (% displacement) from the PAS of EeAChE was calculated by formula (1):
% Displacement = 100 – (IFAChE+ Propidium + inhibitor / IFAChE + Propidium) × 100 (1),
where IFAChE + Propidium is the fluorescence intensity of the propidium associated with AChE in the absence of the test compound (taken as 100%), and IFAChE + Propidium + inhibitor is the fluorescence intensity of the propidium associated with AChE in the presence of the test compound.

[7] = cited from earlier work
[8] = set-up: method as in PMID 35322571; conditions: cited from earlier work
porcine liver CES [9] = system: porcine liver CES; set-up: method as in PMID 35322571; conditions: % inhibition at 20 μM; cited from earlier work
[10] = MTT, mean ± SEM, n = 3, read-out: HEK293T IC50
[11] = HepG2, MTT, 24 h, mean ± SEM, n = 3, read-out: Hep G2 IC50
[12] = equine serum BChE, mean ± SEM, n = 3
[13] = MTT, mean ± SEM, n = 3, read-out: SH‐SY5Y IC50

T3 sequence (O42275 24-633): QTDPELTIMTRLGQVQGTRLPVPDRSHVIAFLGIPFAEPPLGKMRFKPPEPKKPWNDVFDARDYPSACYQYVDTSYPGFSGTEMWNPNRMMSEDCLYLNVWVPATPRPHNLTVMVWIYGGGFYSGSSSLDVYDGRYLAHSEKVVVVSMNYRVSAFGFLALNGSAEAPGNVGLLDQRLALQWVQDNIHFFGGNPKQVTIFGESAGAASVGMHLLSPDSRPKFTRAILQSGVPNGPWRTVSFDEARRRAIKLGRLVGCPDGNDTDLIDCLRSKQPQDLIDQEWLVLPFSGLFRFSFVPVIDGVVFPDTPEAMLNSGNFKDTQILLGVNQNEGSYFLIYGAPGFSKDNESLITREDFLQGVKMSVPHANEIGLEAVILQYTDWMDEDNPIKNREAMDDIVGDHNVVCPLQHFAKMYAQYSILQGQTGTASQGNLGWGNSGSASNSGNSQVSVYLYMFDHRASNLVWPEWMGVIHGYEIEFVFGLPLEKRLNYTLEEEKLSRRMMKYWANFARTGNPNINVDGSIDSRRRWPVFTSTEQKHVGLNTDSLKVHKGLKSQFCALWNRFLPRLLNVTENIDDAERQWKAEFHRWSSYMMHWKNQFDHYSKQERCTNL
T2 sequence (P22303 32-617 isoform P22303-2 limits assumed): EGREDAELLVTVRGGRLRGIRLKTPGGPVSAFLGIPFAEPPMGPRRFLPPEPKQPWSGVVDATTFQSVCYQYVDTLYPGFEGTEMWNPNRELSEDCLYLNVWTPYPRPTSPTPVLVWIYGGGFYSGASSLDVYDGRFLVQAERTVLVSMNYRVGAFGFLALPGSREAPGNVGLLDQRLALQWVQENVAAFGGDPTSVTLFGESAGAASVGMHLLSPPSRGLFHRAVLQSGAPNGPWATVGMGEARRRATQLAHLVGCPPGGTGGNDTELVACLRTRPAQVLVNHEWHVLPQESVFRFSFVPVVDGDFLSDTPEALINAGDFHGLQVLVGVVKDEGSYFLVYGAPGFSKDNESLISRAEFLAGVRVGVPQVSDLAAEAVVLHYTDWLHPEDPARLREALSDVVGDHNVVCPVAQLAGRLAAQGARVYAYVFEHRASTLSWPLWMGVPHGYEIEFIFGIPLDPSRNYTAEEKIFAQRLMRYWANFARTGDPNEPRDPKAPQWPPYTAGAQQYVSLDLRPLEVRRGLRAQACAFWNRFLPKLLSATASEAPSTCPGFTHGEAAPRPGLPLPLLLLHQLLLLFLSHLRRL
β‐amyloid (1–42) (Aβ42), sequence (P05067 672-713 limits assumed): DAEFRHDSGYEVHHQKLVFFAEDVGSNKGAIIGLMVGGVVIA
T1 sequence (P81908 whole entry): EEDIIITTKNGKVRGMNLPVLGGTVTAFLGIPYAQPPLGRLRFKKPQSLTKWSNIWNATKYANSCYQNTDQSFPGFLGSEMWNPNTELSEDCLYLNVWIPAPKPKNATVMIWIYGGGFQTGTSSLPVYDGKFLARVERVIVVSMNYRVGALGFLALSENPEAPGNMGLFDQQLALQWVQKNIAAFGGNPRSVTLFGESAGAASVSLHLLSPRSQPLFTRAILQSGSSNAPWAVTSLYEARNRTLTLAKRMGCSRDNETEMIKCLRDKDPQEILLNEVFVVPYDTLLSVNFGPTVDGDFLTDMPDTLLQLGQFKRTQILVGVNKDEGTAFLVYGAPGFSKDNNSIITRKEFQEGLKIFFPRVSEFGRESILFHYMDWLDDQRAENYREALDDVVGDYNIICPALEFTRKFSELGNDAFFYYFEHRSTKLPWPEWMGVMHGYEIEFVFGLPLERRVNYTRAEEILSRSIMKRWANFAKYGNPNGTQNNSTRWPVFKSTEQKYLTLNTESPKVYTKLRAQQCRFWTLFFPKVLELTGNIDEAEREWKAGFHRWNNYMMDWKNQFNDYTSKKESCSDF

SMILES: O=C(NCCCCNc1c2c(nc3c1CCC3)CCCC2)c1ccccc1O [7a, N‐{4‐[(2,3,5,6,7,8‐Hexahydro‐1H‐cyclopenta[b]quinolin‐9‐yl)amino]butyl}−2‐hydroxybenzamide]
- IC50 [1]: 17.6 ± 0.8 µM
- ABTS^•+‐scavenging activity, TEAC [1]: 0.97 ± 0.04
- inhibition at 100 µM (β‐amyloid (1–42) (Aβ42)): 41.3 ± 3.3%
- IC50 [2, 10]: 38.4 ± 3.6 µM
- IC50 [3, 11]: 74.7 ± 3.4 µM
- CES inhibition, % (porcine liver CES [4]): 5.0 ± 0.1%
- Selectivity index IC50AChE/IC50BChE (equine serum BChE): 6.0
- IC50 (equine serum BChE; [12]): 0.254 ± 0.023 µM
- IC50 (human erythrocyte AChE): 1.52 ± 0.14 µM
- IC50 [5, 13]: 49.6 ± 3.7 µM
- Propidium displacement, % [6]: 10.8 ± 0.8%

SMILES: Oc1ccccc1CNCCCCNc1c2c(nc3c1CCC3)CCCC2 [10a, 2‐[({4‐[(2,3,5,6,7,8‐Hexahydro‐1H‐cyclopenta[b]quinolin‐9‐yl)amino]butyl}amino)methyl]phenol]
- IC50 [1]: 10.1 ± 0.5 µM
- ABTS^•+‐scavenging activity, TEAC [1]: 1.5 ± 0.08
- ABTS^•+‐scavenging activity, TEAC ([1]; listed as 10a as): 1.5
- inhibition at 100 µM (β‐amyloid (1–42) (Aβ42)): 30.5 ± 2.4%
- IC50 [2, 10]: 4.49 ± 0.27 µM
- IC50 [3, 11]: 27.6 ± 1.3 µM
- CES inhibition, % (porcine liver CES [4]): 6.2 ± 0.5%
- Selectivity index IC50AChE/IC50BChE (equine serum BChE): 12.1
- IC50 (equine serum BChE; [12]): 0.198 ± 0.019 µM
- IC50 (human erythrocyte AChE): 2.4 ± 0.15 µM
- IC50 [5, 13]: 90.8 ± 1.3 µM
- Propidium displacement, % [6]: 13.6 ± 0.9%

SMILES: O=C(NCCCCCCCCNc1c2c(nc3c1CCC3)CCCC2)c1ccccc1O [7c, N‐{8‐[(2,3,5,6,7,8‐hexahydro‐1H‐cyclopenta[b]quinolin‐9‐yl)amino]octyl}−2‐hydroxybenzamide]
- IC50 [1]: 19.4 ± 0.6 µM
- ABTS^•+‐scavenging activity, TEAC [1]: 0.94 ± 0.04
- inhibition at 100 µM (β‐amyloid (1–42) (Aβ42)): 74.1 ± 5.1%
- IC50 [2, 10]: 3.62 ± 0.02 µM
- IC50 [3, 11]: 6.92 ± 1.22 µM
- CES inhibition, % (porcine liver CES [4]): 32.9 ± 0.9%
- BChE inhibition, times more effective than amiridine (equine serum BChE): 25 times
- IC50 (equine serum BChE): 0.011 ± 0.0001 µM
- Selectivity index IC50AChE/IC50BChE (equine serum BChE): 138
- IC50 (equine serum BChE; [12]): 0.0111 ± 0.0001 µM
- IC50 (human erythrocyte AChE): 1.53 ± 0.03 µM
- IC50 [5, 13]: 7.99 ± 0.3 µM
- Propidium displacement, % [6]: 11.8 ± 0.8%

SMILES: Cl.Nc1c2c(nc3c1CCC3)CCCC2.O [Amiridine, 9‐amino‐2,3,5,6,7,8‐hexahydro‐1H‐cyclopenta[b]quinoline monohydrochloride monohydrate, reference compound]
- pKa of the endocyclic nitrogen atom [7]: 9.52
- ABTS^•+‐scavenging activity, TEAC [1]: 0.040 ± 0.003
- IC50 ([2]; read-out: HEK293T IC50): 106 ± 3 µM
- IC50 ([3]; HepG2, 24 h, read-out: Hep G2 IC50): 224 ± 11.2 µM
- IC50 ([5]; read-out: SH‐SY5Y IC50): 135 ± 18.2 µM

SMILES: Oc1ccccc1CNCCCCCCCCNc1c2c(nc3c1CCC3)CCCC2 [10c, 2‐[({8‐[(2,3,5,6,7,8‐Hexahydro‐1H‐cyclopenta[b]quinolin‐9‐yl)amino]octyl}amino)methyl]phenol]
- IC50 [1]: 10.1 ± 0.6 µM
- ABTS^•+‐scavenging activity, TEAC [1]: 1.48 ± 0.05
- inhibition at 100 µM (β‐amyloid (1–42) (Aβ42)): 96.7 ± 6.7%
- IC50 [2, 10]: 2.33 ± 0.15 µM
- IC50 [3, 11]: 4.19 ± 0.2 µM
- CES inhibition, % (porcine liver CES [4]): 56.3±0.3 (IC50= 10.5±0.1 µM) %
- IC50 (porcine liver CES [4]; porcine liver CES): 10.5 ± 0.1 µM
- Selectivity index IC50AChE/IC50BChE (equine serum BChE): 12.0
- IC50 (equine serum BChE; [12]): 0.022 ± 0.0002 µM
- AChE inhibition, times more active than amiridine (human erythrocyte AChE): about 17 times
- IC50 (human erythrocyte AChE): 0.265 ± 0.018 µM
- IC50 [5, 13]: 10.9 ± 0.6 µM
- Propidium displacement, % [6]: 15.8 ± 1.1%

SMILES: Oc1ccccc1C=NCCCCNc1c2c(nc3c1CCC3)CCCC2 [9a, 2‐[({4‐[(2,3,5,6,7,8‐Hexahydro‐1H‐cyclopenta[b]quinolin‐9‐yl)amino]butyl}imino)methyl]phenol]
- IC50 [1]: 26.6 ± 1.1 µM
- ABTS^•+‐scavenging activity, TEAC [1]: 0.65 ± 0.03
- ABTS^•+‐scavenging activity, TEAC ([1]; listed as 9a a): 0.65
- inhibition at 100 µM (β‐amyloid (1–42) (Aβ42)): 20.1 ± 1.4%
- IC50 [2, 10]: 38.1 ± 2.1 µM
- IC50 [3, 11]: > 100 µM
- CES inhibition, % (porcine liver CES [4]): 10.5 ± 0.9%
- Selectivity index IC50AChE/IC50BChE (equine serum BChE): 5.2
- IC50 (equine serum BChE; [12]): 0.642 ± 0.007 µM
- IC50 (human erythrocyte AChE): 3.31 ± 0.02 µM
- IC50 [5, 13]: 73.2 ± 0.9 µM
- Propidium displacement, % [6]: 12.5 ± 1.1%

SMILES: CCCCCCNC(=O)c1ccccc1O [compound 14, N‐hexylsalicylamide]
- ABTS^•+‐scavenging activity, TEAC [8]: 0.39 ± 0.04
- IC50 ([8]; read-out: ABTS^•+‐scavenging activity, IC50): 46.5 ± 2.3 µM
- CES inhibition, % (porcine liver CES [9]): 4.9 ± 1.0%

SMILES: Oc1ccccc1C=NCCCCCCCCNc1c2c(nc3c1CCC3)CCCC2 [9c, 2‐[({8‐[(2,3,5,6,7,8‐Hexahydro‐1H‐cyclopenta[b]quinolin‐9‐yl)amino]octyl}imino)methyl]phenol]
- IC50 [1]: 29.6 ± 1.2 µM
- ABTS^•+‐scavenging activity, TEAC [1]: 0.63 ± 0.02
- inhibition at 100 µM (β‐amyloid (1–42) (Aβ42)): 71.7 ± 5.1%
- IC50 [2, 10]: 22.2 ± 2.2 µM
- IC50 [3, 11]: 95.9 ± 5.4 µM
- CES inhibition, % (porcine liver CES [4]): 25.8 ± 0.7%
- Selectivity index IC50AChE/IC50BChE (equine serum BChE): 56.8
- IC50 (equine serum BChE; [12]): 0.025 ± 0.001 µM
- IC50 (human erythrocyte AChE): 1.42 ± 0.14 µM
- IC50 [5, 13]: 63.5 ± 4.4 µM
- Propidium displacement, % [6]: 11.6 ± 0.9%
